For data set [1], the system named is mouse melanoma B16. The experiment in a line: Example 6: chlorogenic acid-adriamycin or chlorogenic acid-cisplatin combination against mouse melanoma B16. It counts as in vivo. An excerpt:
(§1) Each group contains 15 animals.

Data set [2] has as its system M1-type macrophage marker iNOS and M2-type macrophage marker Arg. The experiment in a line: Example 2: maintenance of M1-type macrophages (LPS+INFγ) in mouse melanoma B16 model. It counts as in vivo. The conditions noted are these: LPS + INFγ + chlorogenic acid 5, 10, 20 mg/kg, dose-dependent. The method, then: Each group includes 15 animals. After successful anesthesia of mice, bilateral eyeballs were removed and mice were killed by bleeding. […] Mice were placed in supine position, with segmental […] being toward up. 5 ml serum-free DMEM medium preheated at 37° C. was drawn out using 5 ml aseptic syringe, and middle-lower abdominal skin of mice was lifted with a tweezer, then 5 ml pre-suctioned serum-free DMEM medium preheated at 37° C. was injected to abdominal cavity (note: needlepoint being toward up, avoiding intestinal canal and fat). After that, bilateral peritoneal wall was gently kneaded and pressed for about 20-30 seconds, to make the intraperitoneal fluid fully flow. When collecting the peritoneal fluid, a little cut was opened on mouse hypogastric region using a surgical scissor, and skin was […] toward two sides, to thoroughly expose the peritoneum, then it was wiped and cleaned with 75% alcoholic cotton balls for sterilization. […] (3) Cell phenotype was detected by flow cytometer, and the corresponding marker of same sample was determined using real-time fluorescent quantified PCR. […]

The subject of data set [3] is mouse melanoma B16. Nature of the data set: Example 4: tumor inhibitory rate of chlorogenic acid against mouse melanoma B16. The source says:
(§2) After inoculation, animals were divided into groups next day, weighed, and administration of drugs started.
Each group includes 15 animals.

Data set [4] deals with mouse melanoma B16. The experiment in a line: Example 5: chlorogenic acid-cyclophosphamide combination against mouse melanoma B16.
Excerpt: as §2, §1

Data set [5] has as its system M1-type macrophage markers iNOS, IL-12, TNF-α and M2-type macrophage marker Arg. Nature of the data set: Example 1: macrophage marker expression (flow cytometer, real-time fluorescent quantified PCR) in mouse melanoma B16 model. The conditions noted are these: 5, 10, 20 mg/kg i.p. once a day for 13 days. Format: in vivo. The method, then:
Each group has 15 animals. […] After successful anesthesia of mice, bilateral eyeballs were removed and mice were killed by bleeding. […] Mice were placed in supine position, with segmental […] being toward up. 5 ml serum-free DMEM medium preheated at 37° C. was drawn out using 5 ml aseptic syringe, and middle-lower abdominal skin of mice was lifted with a tweezer, then 5 ml pre-suctioned serum-free DMEM medium preheated at 37° C. was injected to abdominal cavity (note: needlepoint being toward up, avoiding intestinal canal and fat). After that, bilateral peritoneal wall was gently kneaded and pressed for about 20-30 seconds, to make the intraperitoneal fluid fully flow. When collecting the peritoneal fluid, a little cut was opened on mouse hypogastric region using a surgical scissor, and skin was […] toward two sides, to thoroughly expose the peritoneum, then it was wiped and cleaned with 75% alcoholic cotton balls for sterilization. Further, about […] of little cut was opened on mouse peritoneum using ophthalmic scissors, and the peritoneal fluid was drawn back with 5 ml aseptic syringe (Try not to absorb intestinal canal and fat, otherwise, it is easy to cause contamination of fibroblasts), then transferred to 15.0 ml centrifuge tube and centrifugated at 1200 rpm/min for 5 min, to remove the supernatant fluid. The residue was re-suspended in sterile normal saline at […] and transferred into 1.5 ml centrifuge tube for use. […] During enzymatic digestion, centrifuge tubes were shaken every 10-15 minutes. When the fluid in centrifuge tubes became turbid, the piece of tumor tissue had already disintegrated and lost its massive shape. Once being shaken, the mass would become cell clumps or single cell, indicating the tumor tissue piece had already been fully digested. The enzymatic digestion time can be suitably shortened or elongated as the digestion degree of tumor tissue. […] Cells were re-suspended in sterile normal saline at […], and transferred to 1.5 ml centrifuge tubes for use. (3) Cell phenotype was detected by flow cytometer, and the corresponding marker of same sample was determined using real-time fluorescent quantified PCR. Results were shown in FIGS. 1-3, in which FIGS. 1-3 are respectively the detection result graphs of iNOS, IL-12, Arg expression in example 1. FIG. 4 is the detection result graph of TNF-α expression in example 1.
(In general: A flow cytometer gives signals particle by particle.)

Data set [6] has as its system M1-type and M2-type macrophages (iNOS, IL-10, Arg expression). Nature of the data set: Example 3: transformation of M2-type to M1-type macrophages (IL-4) in mouse melanoma B16 model. The conditions noted are these: IL-4 + chlorogenic acid 5, 10, 20 mg/kg. It counts as in vivo. The method, then: Each group includes 15 animals. After successful anesthesia of mice, bilateral eyeballs were removed and mice were killed by bleeding. […] Mice were placed in supine position, with segmental […] being toward up. 5 ml serum-free DMEM medium preheated at 37° C. was drawn out using 5 ml aseptic syringe, and middle-lower abdominal skin of mice was lifted with a tweezer, then 5 ml medium was injected to abdominal cavity (note: needlepoint being toward up, avoiding intestinal canal and fat). After that, bilateral peritoneal wall was gently kneaded and pressed for about 20-30 seconds, to make the intraperitoneal fluid fully flow. When collecting the peritoneal fluid, a little cut was opened on mouse hypogastric region using a surgical scissor, and skin was […] toward two sides, to thoroughly expose the peritoneum, then it was wiped and cleaned with 75% alcoholic cotton balls for sterilization. […] (3) Cell phenotype was detected by flow cytometer, and the corresponding marker of same sample was determined using real-time fluorescent quantified PCR. […]

Data set [7] relates to mouse melanoma B16. The experiment in a line: Example 7: chlorogenic acid-5-flurouracil combination against mouse melanoma B16. Particulars: 5-flurouracil 500 mg/kg × 4, i.p.
Protocol: Next day after inoculation, animals were divided into groups, weighed, and administration of drugs started. Normal saline was administrated to mice in the negative control group by peritoneal injection at 0.2 ml/10 g, once a day.
Each group contains 12 animals. […] Tumor control rate (%) was calculated based on tumor weight.
Where [8] appears, read: dose-dependent, strongest at 20 mg/kg.
The mark [9] stands for this setting: cyclophosphamide 60 mg/kg × 1, i.p.

For `N.N.[Cl][Pt][Cl]` [Cisplatin, cisplatin], in the data set with mouse melanoma B16 [1] (cisplatin 3 mg/kg × 6, i.p.), the “Tumor inhibitory rate (%)” value came to 65.97% and the “Tumor weight (g) x ± SD” value was found to be 1.58 ± 0.69 g.

Take `O=C(/C=C/c1ccc(O)c(O)c1)O[C@@H]1C[C@](O)(C(=O)O)C[C@@H](O)[C@H]1O` [Chlorogenic acid, 3-O-caffeoylquinic acid]: in data set [2], the “state of M2-type macrophage marker Arg (FIG. 6)” value is given as “relatively lower state”. Further, the “expression state of M1-type macrophage markers (iNOS, FIG. 5)” value in data set [2] (highest at 20 mg/kg) is given as “maintain the high expression state”. Besides, in the data set with mouse melanoma B16 [3] (5 mg/kg × 13, i.p. once a day), the “Tumor inhibitory rate (%)” value was found to be 17.23% and the “Tumor weight (g) x ± SD” value came out at 2.70 ± 0.76 g. In the data set on mouse melanoma B16 [3] (10 mg/kg × 13, i.p. once a day), the “Tumor inhibitory rate (%)” value is recorded as 43.87% and the “Tumor weight (g) x ± SD” value is 1.83 ± 0.86 g. Also, the “Tumor inhibitory rate compared with cyclophosphamide” value with mouse melanoma B16 [3] (20 mg/kg chlorogenic acid vs 60 mg/kg cyclophosphamide) was “close to that of cyclophosphamide”. Moreover, in the data set with mouse melanoma B16 [3] (20 mg/kg × 13, i.p. once a day), the “Tumor inhibitory rate (%)” value was found to be 48.66% and the “Tumor weight (g) x ± SD” value was 1.68 ± 0.69 g. The “effect on growth of mouse melanoma B16” value in the data set on mouse melanoma B16 [3] (intraperitoneal injection, 5-20 mg/kg × 13, certain dose-effect relationship) is recorded as “obviously inhibitory effect”. Also, the “effect on the anti-tumor effect of adriamycin” value in the data set with mouse melanoma B16 [1] (20 mg/kg chlorogenic acid + 3 mg/kg adriamycin) is listed as “significantly potentialize”. In addition, the “effect on the anti-tumor effect of cisplatin” value in the data set on mouse melanoma B16 [1] (20 mg/kg chlorogenic acid + 3 mg/kg cisplatin) is reported as “significantly potentialize”. Further, the “effect of combination on anti-tumor effects of cyclophosphamide” value with mouse melanoma B16 [4] (20 mg/kg chlorogenic acid combined with cyclophosphamide 60 mg/kg) was “obviously improve anti-tumor effects of cyclophosphamide”. The “expression of M1-type macrophage marker TNF-α (FIG. 4)” value in data set [5] is given as “promote the expression”. In data set [5] (setting [8]), the “expression of M1-type macrophage marker IL-12 (FIG. 2)” value was “obviously promote the expression”, the “expression of M1-type macrophage marker iNOS (FIG. 1)” value is listed as “obviously promote the expression” and the “expression of M2-type macrophage marker Arg (FIG. 3)” value is on record as “obviously inhibit the expression”. In data set [6], the “growth of M1-type macrophage cells (FIG. 7)” value was “positive correlation with the dose” and the “growth of M2-type macrophage cells (FIG. 8)” value is listed as “negative correlation with the dose”.

Consider `O=P1(N(CCCl)CCCl)NCCCO1` (stereo not drawn) [cyclophosphamide, reference compound], for which the “Tumor inhibitory rate (%)” value is on record as 57.79% in the data set on mouse melanoma B16 [3] (setting [9]) and 61.40% in the data set with mouse melanoma B16 [4] (setting [9]). Further, the “Tumor weight (g) x ± SD” value with mouse melanoma B16 [3] (setting [9]) was found to be 1.38 ± 0.62 g; in the data set on mouse melanoma B16 [4] (setting [9]) it was 1.46 ± 0.54 g. The “Body weight (g) x ± SD End” value was 23.01 ± 1.04 g with mouse melanoma B16 [3] (cyclophosphamide 60 mg/kg × 1, i.p., C57BL/6 mice, end of study) and 22.58 ± 1.15 g with mouse melanoma B16 [4] (cyclophosphamide 60 mg/kg × 1, i.p., end of study).

Regarding `O=c1[nH]cc(F)c(=O)[nH]1` [5-flurouracil, 5-fluorouracil], in the data set with mouse melanoma B16 [7], the “Tumor inhibitory rate (%)” value stood at 86.80% and the “Tumor weight (g) x ± SD” value stood at 0.30 ± 0.18 g. Moreover, the “Body weight (g) x ± SD Initial” value in the data set with mouse melanoma B16 [7] (BALB/c mice, before dosing) is on record as 19.17 ± 0.72 g.

For the compound `COc1cccc2c1C(=O)c1c(O)c3c(c(O)c1C2=O)C[C@@](O)(C(=O)CO)C[C@@H]3O[C@H]1C[C@H](N)[C@H](O)[C@H](C)O1` [Adriamycin, adriamycin], in the data set with mouse melanoma B16 [1] (adriamycin 3 mg/kg × 6, i.p.), the “Body weight change rate (%)” value is listed as 22.39%, the “Tumor inhibitory rate (%)” value is on record as 58.89% and the “Tumor weight (g) x ± SD” value turned out to be 1.90 ± 0.56 g.

For the origin of these results see US10265289B2, “Method and medicines for treating melanoma” (SICHUAN JIUZHANG BIOLOGICAL SCIENCE AND TECHNOLOGY CO., LTD., priority 2015, dated 2019).
